Experimental data as given in patent US12043630B2, “Polymorphic form of TG02 for treating cancer” (Cothera Bioscience, Inc., priority 2017, dated 2024).
Where a name gives a salt, the structure may show the parent alone.

Assay: Polymorphic form conversion over time
Type: physicochemical
Description: Preparation: A solution containing TG02·HCl (77.1 g), EtOH (2340 mL) and H2O (185 mL) was heated at reflux for 0.5 h. The mixture was cooled to […] and stirred for 2 h. The mixture was filtered, and the filter cake was washed with EtOH and dried to give TG02 Form VIII (HCl).

Compound: CN1C/C=C/CCOc2cccc(c2)-c2ccnc(n2)Nc2cccc(c2)C1 [TG02 Form VIII (HCl), (16E)-14-methyl-20-oxa-5,7,14,26-tetraazatetracyclo[19.3.1.1(2,6).1(8,12)]heptacosa-1(25),2(26),3,5,8(27),9,11,16,21,23-decaene]
- Form conversion over time: gradually converted to TG02 Form VI (HCl) over time
